These results are taken from publication PMC9549030, “Structural basis for specific inhibition of the deubiquitinase UCHL1” (Nature Communications, 2022).

For data set [1], the system named is Cathepsin C. Further details: method as in SI-Ref-4. The note with it: ref SI-Ref-4; cited from earlier work.
Data set [2] concerns the target T1, UCHL1 (Homo sapiens, UniProt P09936).
T1 sequence (P09936 1-223): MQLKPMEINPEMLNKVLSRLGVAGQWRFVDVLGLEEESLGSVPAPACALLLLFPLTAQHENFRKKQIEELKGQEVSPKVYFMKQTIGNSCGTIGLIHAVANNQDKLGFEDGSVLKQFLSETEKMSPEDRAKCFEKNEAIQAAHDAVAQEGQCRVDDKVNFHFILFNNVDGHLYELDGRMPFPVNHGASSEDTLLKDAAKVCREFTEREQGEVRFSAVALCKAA
Kind of data set: Ub-Rhodamine (Ubiquitin rhodamine cleavage) assay. Format: biochemical. The following applies: 1 h preincubation.

For data set [3], the system named is monoubiquitin in U-87 MG cells. Kind of data set: Quantification of monoubiquitin levels. It is filed as cell-based, human. The following applies: 48 h, independent experiments. The method, then: U-87 MG cells (5 × 10^5/well) were seeded in six-well plates and cultivated for 8 h. Cells were transfected with siRNA as described above. On the next day, cells were cultured in fresh media supplemented with either compounds (final conc. 5 µM) or DMSO, where indicated, for a further 48 h. The media was changed every 24 h to a fresh medium supplemented with compounds (final conc. 5 µM) or DMSO. […] Monoubiquitin band intensities were first normalized to α-tubulin or total protein (Fast Green FCF, TCI) and subsequently normalized to the intensities of monoubiquitin bands in the sample treated with DMSO or siScr (where no DMSO was used) which was set to “1”.

Data set [4] relates to HEK293 cells proteome. Kind of data set: Identification of probe-labeled proteins with mass spectrometry (pulldown, other proteins). The note with it: 1 µM, vs DMSO.
Procedure: Cells were cultured, treated with a compound, and lysed as described above. The cell lysate was diluted to a protein concentration of 2 mg/mL with ABP lysis buffer. 1 µL of each click reagent (see above) were added to each sample, followed by an incubation period of one hour at room temperature with protection from light. The sample volume was adjusted to 1000 µL with PBS and 30 µL of a NeutrAvidin (Thermo Fisher) bead slurry (prewashed 3x with PBS) were added to each sample. The samples were incubated for one hour to overnight on a rotator at 15 rpm at 4 °C. […] Tryptic peptides were desalted with C18 StageTips and analyzed by nano-HPLC-MS/MS.
An Ultimate 3000 RSLC nano-HPLC system and a Hybrid-Orbitrap mass spectrometer (Q Exactive Plus) equipped with a nano-spray source (Thermo Fisher Scientific) was used. […] Proteins were relatively quantified by using MaxQuant[60] v.2.0.3.1, including the Andromeda search algorithm and searching the Homo sapiens reference proteome of the UniProt database. […] Only proteins for which at least two peptides were quantified were chosen for further validation. Relative quantification of proteins was performed by using the label-free quantification algorithm implemented in MaxQuant. […] Label-free quantification (LFQ) intensities were log-transformed (log2); replicate samples were grouped together. […]
For data set [5], the target named is T1, UCHL1. Kind of data set: Thermal shift assay. Format: binding. The note with it: UCHL1 1 µM, 1 h, replicates. The method, then: Reactions were performed in white 96-well PCR plates (Bio-Rad). UCHL1 was diluted in thermal shift buffer (1x PBS, 5 mM DTT) to a 4x concentration of 4 µM. The protein was then mixed with 4x compound dissolved in thermal shift buffer in a 1:1 ratio. To each well was added 20 µL of DUB-Inhibitor solution, followed by 1 h incubation time. To each well was then added 20 µL 4x SYPRO Orange in thermal shift buffer. After sealing the plates with a transparent film, thermal denaturation (gradient: 20–90 °C; Increment: 0.3 °C, hold for 5 s before read) was performed and monitored by a Bio-Rad Connect cycler.

Data set [6] deals with T1, UCHL1. Kind of data set: Identification of probe-labeled proteins with mass spectrometry (pulldown enrichment). The note with it: HEK293 cells; 1 µM; 24 h.
Procedure: Cells were cultured, treated with a compound, and lysed as described above. The cell lysate was diluted to a protein concentration of 2 mg/mL with ABP lysis buffer. 1 µL of each click reagent (see above) were added to each sample, followed by an incubation period of one hour at room temperature with protection from light. The sample volume was adjusted to 1000 µL with PBS and 30 µL of a NeutrAvidin (Thermo Fisher) bead slurry (prewashed 3x with PBS) were added to each sample. The samples were incubated for one hour to overnight on a rotator at 15 rpm at 4 °C. Beads were pelleted by centrifugation, the supernatant was discarded, and the beads were washed six times (1x with ½x lysis buffer, followed by five washes with PBS). After removing the washing solution completely, the beads were subjected to reduction with dithiothreitol (1 mM), alkylation with chloroacetamide (5 mM) and on-bead digestion with first LysC (Serva Biotech, 1 h, 37 °C), followed by trypsin (Sigma Aldrich, 1 h, overnight). Tryptic peptides were desalted with C18 StageTips and analyzed by nano-HPLC-MS/MS.
An Ultimate 3000 RSLC nano-HPLC system and a Hybrid-Orbitrap mass spectrometer (Q Exactive Plus) equipped with a nano-spray source (Thermo Fisher Scientific) was used. The protein fragments were enriched on a C18 PepMap 100 column (5 μm, 100 Å, 300 μm ID * 5 mm, Dionex) using 0.1% TFA, at a flow rate of 30 μL/min, for 5 min and separated on a C18 PepMap 100 column (3 μm, 100 Å, 75 μm ID × 50 cm) using a linear gradient (5–30% ACN/H2O + 0.1% formic acid over 90 min) with a flow rate of 300 nL/min. […] Signals in the mass range of m/z 300 to 1650 were acquired at a resolution of 70,000 for the full scan, followed by ten high-energy collision-dissociation (HCD) MS/MS scans of the most intense at least doubly charged ions at a resolution of 17,500. Proteins were relatively quantified by using MaxQuant[60] v.2.0.3.1, including the Andromeda search algorithm and searching the Homo sapiens reference proteome of the UniProt database. Briefly, an MS/MS ion search was performed for enzymatic trypsin cleavage, allowing two missed cleavages. Carbamidomethylation was set as a fixed protein modification, and oxidation of methionine and acetylation of the N-terminus were set as variable modifications. The mass accuracy was set to 20 parts per million (ppm) for the first search and to 4.5 ppm for the second search. The false discovery rates for peptide and protein identification were set to 0.01. Only proteins for which at least two peptides were quantified were chosen for further validation. Relative quantification of proteins was performed by using the label-free quantification algorithm implemented in MaxQuant. Statistical data analysis of pulldown samples was performed using Perseus[61] v.1.6.15.0, including proteins which were identified in at least four of the five biological replicates which were used per condition. Label-free quantification (LFQ) intensities were log-transformed (log2); replicate samples were grouped together. Pairwise comparisons of groups were performed separately. Missing values were imputed using small normally distributed values (width 0.3, downshift 1.8) and a two-sided t-test (s0 = 5, FDR = 0.001) was performed.
For data set [7], the system named is T2, UCHL1 in HEK293 cells.
T2 construct: Western blot analysis of endogenous UCHL1 labeled with HA-Ub-VS after treatment of HEK293 cells; endogenous in cells; host or cells: HEK293
Kind of data set: Cellular Ub-probe (HA-Ub-VS) competition, inhibition of cellular UCHL1. It is filed as cell-based, human. The note with it: HEK293 cells; 24 h. Here is the method:
Proteins were transferred to a polyvinylidene fluoride (PVDF, only experiments in Fig. 4e and Supplementary Fig. 7e, f) or nitrocellulose (all other experiments) membrane using a Trans-Blot Turbo system (Bio-Rad, 1.3 A, 25 V, 10 min). The membranes were blocked with 5% (m/v) nonfat milk in PBS-T buffer and incubated with indicated primary antibodies (anti-UCHL1, 1:1000, Cell Signaling, D3T2E; anti-PARK7, 1:1000, Cell Signaling, D29E5; anti-Tubulin, 1:4000, Sigma, T6199; anti-Hemagglutinin, 1:1000, BioLegend, 16B12; anti-flag, 1:2000, Sigma, F3165; anti-Ubiquitin, 1:1000, Cell Signaling, P4D1; anti-Ubiquitin, 1:300, Santa Cruz, P4D1, sc-8017; anti-UCHL3, 1:1000, Proteintech, 12384-1-AP) overnight. Then the membranes were incubated with the respective secondary antibody (anti-mouse,1:5000, Sigma, NXA931; anti-rabbit, 1:5000, Sigma, GENA934) coupled to horseradish peroxidase. The chemiluminescent reaction was initiated using a Clarity Western ECL substrate (Bio-Rad) and images were taken on a ChemiDoc MP Imaging System (Bio-Rad).
The total protein concentration was adjusted to 2 mg/ml by diluting each sample with ABP lysis buffer. A final concentration of 1 µM HA-Ub-VS probe was added, followed by incubation for 30 min at 37 °C. The labeling reaction was quenched by the addition of 4x LDS sample buffer. The samples were separated via SDS-PAGE and further analyzed via western blotting as described above.

Data set [8] relates to U-87 MG cells. Kind of data set: Cell growth and viability assay (confluency, propidium iodide). The following applies: up to 5 µM, up to 72 h. It is filed as cell-based, human. The method, then: (§1) HEK293 cells (5 × 10^3/well) or U-87 MG cells (5.5 × 10^3/well) were seeded into 96-well dishes. The following day cells were treated with the compounds at varying concentrations and propidium iodide at 20 µg/mL. The plates were immediately transferred to the Incucyte S3. Bright-field and red fluorescent images were automatically captured at 1 or 2 h intervals for 72 h with 10x magnification. The confluency of cells and the number of PI-positive cells was determined using the Incucyte masking program.

The subject of data set [9] is HEK293 cells. The data set is described as above. Format: cell-based, human. The following applies: up to 5 µM, up to 72 h. The method, then: as §1
Data set [10] has as its target Prolyl oligopeptidase. Details: method as in SI-Ref-8. The note with it: ref SI-Ref-8; cited from earlier work.
The target of data set [11] is Caspase 1. Further details: method as in SI-Ref-5. The following applies: ref SI-Ref-5; cited from earlier work.
The test system of data set [12] is Cathepsin K. The following applies: ref SI-Ref-7; cited from earlier work.

Structures are written as SMILES. pIC50: −log10 of the molar value. “And” between values parts separate entries of the source, which are not always exact repeats. Identical values can stand only once. “Also recorded” adds a separate entry of the source.

On to `N#Cc1ccc(-c2ccc(C[C@@H](C#N)NC(=O)C3(N)CCOCC3)cc2)cc1` [AZD5248], for which the pIC50 in data set [1] was 8.54.

Turning to `C#CCCCNC(=O)[C@H]1CCN(C#N)C1` [GK16S], the pIC50 in data set [2] (read-out: IC50 (UCHL1)) is less than 4.00. In addition, the remaining activity at 0.00050402 µM in data set [2] (compound 0.50402 nM, read-out: UCHL1 activity, data point mean) was found to be 90.8%. The remaining activity at 0.00151206 µM in data set [2] (compound 1.51206 nM, read-out: UCHL1 activity, data point mean) came out at 89.7%. Moreover, the remaining activity at 0.00453618 µM in [2] (compound 4.53618 nM, read-out: UCHL1 activity, data point mean) amounted to 99.1%. The remaining activity at 0.0136085 µM in data set [2] (compound 13.6085 nM, read-out: UCHL1 activity, data point mean) was found to be 96.8%. Besides, the remaining activity at 0.0408257 µM in data set [2] (compound 40.8257 nM, read-out: UCHL1 activity, data point mean) worked out at 83.7%. In addition, the remaining activity at 0.122477 µM in data set [2] (compound 122.477 nM, read-out: UCHL1 activity, data point mean) is 87.4%. For the same compound, the remaining activity at 0.367431 µM in data set [2] (compound 367.431 nM, read-out: UCHL1 activity, data point mean) stood at 90.4%. Moreover, the remaining activity at 1.10229 µM in [2] (compound 1102.29 nM, read-out: UCHL1 activity, data point mean) was 91.3%. Also, in [2] (compound 3306.88 nM, read-out: UCHL1 activity, data point mean), the remaining activity at 3.30688 µM was 90.9%. Besides, the remaining activity at 30.581 µM in data set [2] (compound 30581 nM, read-out: UCHL1 activity, data point mean) was found to be 81%. Moreover, in data set [2] (compound 100000 nM, read-out: UCHL1 activity, data point mean), the remaining activity at 100 µM turned out to be 68.2%. The “monoubiquitin intensity normalized to DMSO (= 1)” value in data set [3] (siSCr, 5 µM) is 1.022 and 1.336 and 1.231 and 0.8547; in data set [3] (siUCHL3, 5 µM) it was 1.049 and 0.9228 and 0.9331 and 0.7832 and 1.05 and 0.7905. Also, in data set [4], the “Fold change log2, protein 02. Sep” value is 0.4147. Further, in data set [4], the “Fold change log2, protein 07. Sep” value is listed as 0.472. Besides, the “melting temperature (Tm) of UCHL1” value in data set [5] (compound 1.25 µM) was 53.4 and 53.1; in [5] (compound 2.5 µM) it was 53.4 and 53.1; in data set [5] (compound 5 µM), 53.1 and 53.4. For the same compound, the “enrichment factor of UCHL1 (log2, vs DMSO)” value in data set [6] amounted to 3. Also, the “inhibition of cellular UCHL1” value in data set [7] is “did not equate to a detectable inhibition; also recorded: does not inhibit cellular UCHL1”. Moreover, in data set [8], the “toxicity (cell growth and viability)” value is “nontoxic”. Further, in [9], the “growth arrest and apoptosis” value is given as “neither GK13S nor GK16S showed growth arrest nor apoptosis”.

For the compound `N#C[C@@H]1CCCN1C(=O)[C@@H]1CCCN1C(=O)CCCc1ccccc1` [KYP-2047], the pIC50 in [10] was 8.41.

Turning to `CC(C)(C)[C@H](NC(=O)c1ccc(N)c(Cl)c1)C(=O)N1CCC[C@H]1C(=O)N[C@H](C#N)CC(=O)O` [ML132], the pIC50 in data set [11] was 10.64.

In the case of `CC(C)(F)C[C@H](N[C@@H](c1ccc(-c2ccc(S(C)(=O)=O)cc2)cc1)C(F)(F)F)C(=O)NC1(C#N)CC1` [Odanacatib], in [12], the pIC50 is 9.70.

Usually pIC50 stands for −log10 of the IC50, conventionally taken in molar units.
